{"source": "patent EP1060742A1", "about": "“INTERSTITIAL ADENOSINE LEVEL-ELEVATING AGENTS” (priority 1998, dated 1999)", "key": {"[1]": {"test_system": "cardiomyopathic Syrian hamsters (Bio 14.6 strain)", "assay": "Heart failure and myocardiopathy test in cardiomyopathic hamsters, oral dosing for 87 days", "assay_type": "in vivo, hamster", "details": "for AST (GOT) level / LDH level: day 30, 60mg/kg/day", "description": "(§1) Male aged-matched normal healthy golden hamsters (F1B strain) were used as control animals. These hamsters were purchased from Biobreeders Inc. Throughout the test period, the animals were housed in stainless steel cage in a temperature (23 ± 1C° )controlled room where a daily light-dark cycle was maintained artificially at 12 hours intervals. The animals were fed with commercially available pellet (CE-2, CLEA Japan, Inc.) and provided adde libitum with feed pellets and water. Incidentally, after they were purchased, the animals were acclimated to the above environment at least one week before subjected to experiments.\nThe test compound was suspended in a 0.5% sodium carboxymethyl cellulose (CMC-Na) solution. This dosing solution was orally administered for 87 days at dosages of 30mg/kg/day and 60mg/kg/day and a dose volume of 20ml/kg.\nCaptopril was used as a control compound. The compound was similarly suspended in a 0.5% CMC-Na solution and was orally administered for 87 days at a dosage of 60mg/kg/day and a dose volume of 20ml/kg.\nA group of animals administered with a 0.5% CMC-Na solution served as a vehicle control group. The solution was administered once daily from Monday through Friday but not on Saturdays and Sundays.\n(§2) Body weight was recorded on every Monday and Thursday after the administration of the test compound. […]\nBlood samples were collected before administration of the test compound, and 45 and 88 days after administration. The blood samples were collected from venous plexus of eyegrounds under anesthesia by ether. Blood plasma was separated from the samples and plasma norepinephrine (NE) levels were measured using a catecholamine assay system.\nMyocardial tissue preparations were prepared 88 days after the administration was started. The animals were sacrificed by exsanguination under anesthesia by ether. Chests were opened and hearts extirpated. Weight of the hearts was measured and the hearts were fixed in a 10% buffered neutral formaldehyde solution. Bases of the hearts were sliced to a 3mm thickness and formed into paraffin slices with respect to the side of the base using ordinary methods. The slices were stained with kossa, hematoxylin/eosin (H&E) and H&E/aniline blue stains. The preparations of the hearts so prepared were measured in area for regions of cardiac fibrosis, mineral deposition, myocardial necrosis, and macrophage infiltration, using an image analyzing system (Mac SCOPE Ver.2.1, Mitsuya Shoji).\n(§3) Measurements were expressed in mean ± S.E., and tests for significant differences between the respective groups were performed using Dunnett's multiple comparison test."}, "[2]": {"test_system": "male ICR mice", "assay": "Toxicity test, subcutaneous administration to mice, observed for one week", "assay_type": "in vivo"}, "[3]": {"assay": "Toxicity test, oral administration to fasted mice, observed for two weeks, LD50 by the Richfield-Wilcockson method", "assay_type": "in vivo", "details": "mouse, in vivo, mice, Richfield-Wilcockson method", "description": "(§4) LD50 was determined using the Richfield-Wilcockson method."}, "[4]": {"test_system": "mice", "assay": "Toxicity test, oral administration to fasted mice, observed for two weeks, LD50 by the Richfield-Wilcockson method", "assay_type": "in vivo", "details": "0.025N hydrochloric acid-saline solution, after 16-hour fasting, observed for two weeks", "description": "as §4"}, "[5]": {"test_system": "normal healthy golden hamsters (F1B strain)", "details": "hamster, in vivo", "description": "as §1, with “Male cardiomyopathic Syrian hamsters (Bio 14.6 strain) aged 7 weeks were used. Male” for “Male”, “Incidentally, after they were purchased, the animals were acclimated to the above environment at least one week before subjected to experiments.” left out\nas §2\nBlood samples were collected before administration of the test compound, and 45 and 88 days after administration. […] Blood plasma was separated from the samples and plasma norepinephrine (NE) levels were measured using a catecholamine assay system.\nMyocardial tissue preparations were prepared 88 days after the administration was started. […] Weight of the hearts was measured and the hearts were fixed in a 10% buffered neutral formaldehyde solution. […] The preparations of the hearts so prepared were measured in area for regions of cardiac fibrosis, mineral deposition, myocardial necrosis, and macrophage infiltration, using an image analyzing system (Mac SCOPE Ver.2.1, Mitsuya Shoji). […]"}, "[6]": {"test_system": "myocardial adenosine level", "assay": "Effects on myocardial adenosine level in extirpated, Langendorff-perfused rat hearts (HPLC)", "details": "10^-5 M, 15-minute perfusion, compared to vehicle control group (0.04% DMSO)", "description": "Male Sprange-Dawley rats aged 7 to 8 weeks were used. Hearts were extirpated under anesthesia by pentobarbital (50mg/kg, intra-abdominally injected) and were suspended in a Langendorff's apparatus.\nThe hearts were then frozen with liquid nitrogen. 10 equivalents of 0.6N perchloric acid were added to the frozen tissue and the tissue was homogenized and neutralized by 1N KOH and was then centrifuged. After centrifugation, the level of adenosine in the supernatant was measured by HPLC.\nPropranol was used as a control compound for the test and 0.04% DMSO solution was used as a vehicle control.\nas §3"}, "[7]": {"test_system": "cardiomyopathic Syrian hamsters (Bio 14.6 strain)", "assay": "Heart failure and myocardiopathy test in cardiomyopathic hamsters, oral dosing for 87 days", "assay_type": "in vivo, hamster", "details": "Bio 14.6 hamsters, 30, 60 and 88 days, all tests other than AST (GOT) and LDH on day 30 at 60mg/kg/day"}, "[8]": {"details": "Bio 14.6 hamsters, 88 days after administration, 60mg/kg/day, compared to vehicle control group"}, "[9]": {"details": "Bio 14.6 hamsters, day 88, 60mg/kg/day oral"}, "[10]": {"details": "Bio 14.6 hamsters, day 88, 60mg/kg/day, image analysis"}, "[11]": {"details": "Bio 14.6 hamsters, day 88, 30mg/kg/day, image analysis"}}}
{"smiles": "C[C@H](CS)C(=O)N1CCC[C@H]1C(=O)O", "note": "[captopril, reference compound]", "values": [{"measurement": "plasma NE level", "setting": "[1]; [8]", "result": "The same results were obtained"}, {"measurement": "AST (GOT) level", "setting": "[1]; Bio 14.6 hamsters", "result": "tendency of decrease"}, {"measurement": "LDH level", "setting": "[1]; Bio 14.6 hamsters", "result": "tendency of decrease"}, {"measurement": "relative heart weight", "setting": "[1]; [9]", "result": "The same results were obtained"}, {"measurement": "area of cardiac lesions", "setting": "[1]; [10]", "result": "significant decrease in area"}, {"measurement": "area of regions of fibrosis", "setting": "[1]; [10]", "result": "significant decrease in area"}, {"measurement": "area of regions of macrophage infiltration", "setting": "[1]; [10]", "result": "significant decrease in area"}, {"measurement": "area of regions of myocardial necrosis", "setting": "[1]; [10]", "result": "significant decrease in area"}]}
{"smiles": "COC(=O)C12C(O)C(C(=O)Cc3ccccn3)=NN1C(c1ccccc1)C=CC2c1ccccc1", "note": "(centres unmarked) [compound No.1, 2,5-diphenyl-7-hydroxy-6-methoxycarbonyl-8-(2-pyridyl)acetyl-1,9-diazabicyclo[4.3.0]-nona-3,8-dien]", "values": [{"measurement": "clinical observations related to treatment", "setting": "[2]; mouse, in vivo, sc", "result": "no clinical observations"}, {"measurement": "mortality", "setting": "[2]; subcutaneous, 10ml/kg of a 10% aqueous polyethylene glycol 400 solution, observed for one week", "result": "no mortality"}, {"measurement": "LD50 at 336 h", "setting": "[3]", "result": "> 100", "unit": "mg/kg"}, {"measurement": "clinical observations", "setting": "[4]", "result": "no clinical observations"}, {"measurement": "mortality", "setting": "[4]", "result": "no mortality"}, {"measurement": "clinical chemistry tests", "setting": "[5]", "result": "no effect"}, {"measurement": "plasma NE level", "setting": "[1]; 45 days after administration, each dosage, compared to vehicle control groups, strain not specified in the sentence (Fig.4)", "result": "did not have significant effects"}, {"measurement": "plasma NE level", "setting": "[1]; [8]", "result": "significantly lower level"}, {"measurement": "plasma NE level", "setting": "[1]; Bio 14.6 hamsters, 88 days after administration, across 30 and 60mg/kg/day", "result": "decrease in a dose-dependent manner"}, {"measurement": "AST (GOT) level", "setting": "[1]; Bio 14.6 hamsters", "result": "tendency of decrease"}, {"measurement": "LDH level", "setting": "[1]; Bio 14.6 hamsters", "result": "tendency of decrease"}, {"measurement": "relative heart weight", "setting": "[1]; Bio 14.6 hamsters, day 88, 30mg/kg/day oral", "result": "significant suppression of increase"}, {"measurement": "area of cardiac legions (sum of the areas of necrosis, macrophage infiltration and fibrosis)", "setting": "[1]; [11]", "result": "significant decrease in area"}, {"measurement": "area of regions of fibrosis", "setting": "[1]; [11]", "result": "significant decrease in area"}, {"measurement": "area of regions of macrophage infiltration", "setting": "[1]; [11]", "result": "significant decrease in area"}, {"measurement": "area of regions of myocardial necrosis", "setting": "[1]; [11]", "result": "significant decrease in area"}, {"measurement": "relative heart weight", "setting": "[1]; [9]", "result": "significant suppression of increase"}, {"measurement": "area of regions of macrophage infiltration", "setting": "[1]; [10]", "result": "significant decrease in area"}, {"measurement": "area of regions of myocardial necrosis", "setting": "[1]; [10]", "result": "significant decrease in area"}, {"measurement": "relative liver weight", "setting": "[1]; Bio 14.6 hamsters, day 88, oral", "result": "did not have effects"}, {"measurement": "changes in body weight", "setting": "[1]; Bio 14.6 hamsters, each dosage (30mg/kg/day and 60mg/kg/day), oral", "result": "did not affect"}, {"measurement": "myocardial adenosine level", "setting": "[6]", "result": "increased three-fold"}, {"measurement": "clinical chemistry tests (all the other tests)", "setting": "[7]", "result": "no effect"}]}
{"smiles": "CC(C)NCC(O)COc1cccc2ccccc12", "note": "(centres unmarked) [propranol, reference compound]", "values": [{"measurement": "myocardial adenosine level", "setting": "[6]", "result": "no significant difference"}]}
